From patent publication US10232020B2, “Incretin-insulin conjugates” (priority 2014, dated 2019) come the findings set out here.

One data set in a line: physchem. On the procedure:
The rate of cleavage was determined for the respective propeptides. The concentrations of the propeptides and the model parent peptide were determined by their respective peak areas. […] The slope of this plot provides the rate constant ‘k’.

For data set [1], the system named is diabetic mice. Kind of data set: Blood glucose, food intake and body weight in diabetic mice. The following applies: for blood glucose levels and duration of action: FIG. 15B; for body weight: FIG. 17D. The format is in vivo. As to the method:
Six- to eight-week-old male C57BL/6 mice were maintained at 23° C., constant humidity, and a 12-h light-dark cycle. The acute in vivo effects of select peptides were evaluated by subcutaneously injecting peptides solubilized in physiologically buffered saline or a vehicle control to normal or diabetic mice. Blood glucose was measured at various time points through the course of a 24 hr period following administration of the peptides. Each group of mice contained 8 animals per group. The average body weight was ˜25 g. Mice were made diabetic by administration of streptozotocin.
Repeat daily subcutaneous administration of the peptides or vehicle control was administered to the mice for periods of five days to two weeks. The obese mice were given a diabetogenic diet Mice had free access to water and were fed ad libitum with a high fat diet (HFD) comprising 58% of calories from fat (D12331; Research Diets, New Brunswick, N.J.) and each group of mice contained 8 animals per group. The average body weight was ˜50 g and the mice were ˜6 months old males. Body weight and food intake were measured on the days that peptide or vehicle control was administered to the mice. Fasting blood glucose levels were measured repeatedly.

In a further data set the target is T1, GIP receptor (Homo sapiens, UniProt P48546).
T1 construct: expressed in transfected cells; host or cells: HEK293
T1 sequence (P48546 22-466): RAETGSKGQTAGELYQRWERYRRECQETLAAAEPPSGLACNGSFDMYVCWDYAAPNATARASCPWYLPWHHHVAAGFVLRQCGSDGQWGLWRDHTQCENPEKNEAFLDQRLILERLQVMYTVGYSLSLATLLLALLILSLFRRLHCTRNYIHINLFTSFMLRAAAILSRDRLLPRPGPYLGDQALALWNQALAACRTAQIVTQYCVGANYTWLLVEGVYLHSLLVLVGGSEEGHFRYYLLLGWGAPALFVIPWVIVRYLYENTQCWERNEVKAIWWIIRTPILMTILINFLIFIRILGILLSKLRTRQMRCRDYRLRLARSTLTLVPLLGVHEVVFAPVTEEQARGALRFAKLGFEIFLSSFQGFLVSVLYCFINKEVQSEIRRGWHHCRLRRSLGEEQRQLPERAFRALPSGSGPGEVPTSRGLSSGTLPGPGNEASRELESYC
Kind of data set: cAMP synthesis luciferase reporter assay in HEK293 cells, GIP receptor. In kind it is cell-based. To be noted: read-out: Normalized GIP EC50 (nM) MEAN; Table 4. An excerpt: (§1) Structures associated with the abbreviated lipidated groups designated in Table 4 are as follows: […]

For a further data set, the target named is T2, GLP-1 receptor (Homo sapiens, UniProt P43220).
T2 construct: expressed in transfected cells; host or cells: HEK293
T2 sequence (P43220 24-463, species assumed): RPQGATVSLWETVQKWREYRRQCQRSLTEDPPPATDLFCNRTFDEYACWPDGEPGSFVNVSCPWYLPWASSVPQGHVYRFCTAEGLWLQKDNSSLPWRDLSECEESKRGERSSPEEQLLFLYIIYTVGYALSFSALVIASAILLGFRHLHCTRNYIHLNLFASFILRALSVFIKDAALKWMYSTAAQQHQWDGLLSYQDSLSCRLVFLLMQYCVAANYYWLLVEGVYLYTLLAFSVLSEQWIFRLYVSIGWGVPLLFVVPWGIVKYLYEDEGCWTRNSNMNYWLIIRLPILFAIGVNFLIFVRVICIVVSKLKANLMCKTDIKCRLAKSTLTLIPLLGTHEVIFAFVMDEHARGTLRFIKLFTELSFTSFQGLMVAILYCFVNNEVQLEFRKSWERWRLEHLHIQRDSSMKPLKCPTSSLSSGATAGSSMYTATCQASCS
Kind of data set: cAMP synthesis luciferase reporter assay in HEK293 cells, GLP-1 receptor. The format is cell-based. The following applies: for EC50: read-out: Normalized GLP-1 EC50 (nM) MEAN, Table 4.
From the text: as §1

Data set [2] relates to diabetic mice. As to the kind of experiment: Blood glucose, food intake and body weight in diabetic mice. In kind it is in vivo. The following applies: four days; for weight loss: daily or twice a day, FIG. 14B.
For another data set, the target named is T3, insulin receptor (IR-B) (Homo sapiens, UniProt P06213).
T3 construct: expressed in transfected cells
As to the kind of experiment: In vitro activity at insulin B receptor (IR-B). The format is cell-based. To be noted: Table 4; read-out: Normalized IR-B EC50 (nM) MEAN. As to the method:
Color development was stopped 5 min later by adding 0.05 ml 1 N HCl. Absorbance at 450 nm was measured on Titertek Multiscan MCC340 (ThermoFisher, Pittsburgh, Pa.). […] Structures associated with the abbreviated lipidated groups designated in Table 4 are as follows: […]

Starred links: 1 amine or outer side, 2 acyl side, 3 side chain; linkers in the order of their positions; H or OH if unused. Non-standard residues stand in square brackets, D forms with d. Groups on a side chain read outwards from the residue. No end group written: not given here. *: point of attachment. γGlu = O=C(O)[C@H](CCC(=O)[*:2])N[*:1]; Palmitoyl = CCCCCCCCCCCCCCCC(=O)*; Aib = CC(C)(N)C(=O)O

For “FPHSRGTF-NH2 [Table 3 no. 1: F, P, H-SRGTF-NH2]”, in the data set “physchem” (buffer), the t1/2 entry was “No cleavage”.
Take “CIU-012: HXEGTFTSDUSSYLEEQAAKEFIAWLVKGGPSSGAPPPSG (SEQ ID NO: 1953); C(S-S)—CH2CH2CH2-B^1 Insulin”: in the data set on diabetic mice [1], the “blood glucose levels and duration of action” value is “demonstrate activity in reducing blood glucose levels and demonstrate an extended duration of action relative to native insulin”.
For the compound “SPHSRGTF-NH2 [Table 3 no. 7: S, P, H-SRGTF-NH2]”, the t1/2 entry in “physchem” (buffer) is given as “No cleavage”.
With `CC(C)=C(N)C(=O)N1CCC[C@H]1C(=O)N[C@@H](Cc1c[nH]cn1)C(=O)N[C@@H](CO)C(=O)N[C@@H](CCCNC(=N)N)C(=O)NCC(=O)N[C@H](C(=O)N[C@@H](Cc1ccccc1)C(N)=O)[C@@H](C)O`, the t1/2 entry in “physchem” (buffer) is listed as “No cleavage”.
Consider “CIU-146: YXEGTFTSDU2SIYLDKQAAXEFVNWLLAGGPSSGAPPPS (SEQ ID NO: 2014); C(S-S)—CH2CH2CH2-B^1Desdi (Y[Aib]EGTFTSDKSIYLDKQAA[Aib]EFVNWLLAGGPSSGAPPPS; not fully specified (residue 10, C-terminus); also: disulfide-linked propyl to B1 of desdi insulin, site not given here)”, for which the EC50 in the data set with GIP receptor is 0.0014 nM.
Take `C[C@@H](O)[C@H](NC(=O)CNC(=O)[C@H](CCCNC(=N)N)NC(=O)[C@H](CO)NC(=O)[C@H](Cc1c[nH]cn1)NC(=O)[C@@H](N)Cc1ccc(NC(=O)CNC(=O)CO)cc1)C(=O)N[C@@H](Cc1ccccc1)C(N)=O`: the t1/2 entry in “physchem” (Table 2, result in words, PBS) is “No cleavage”.
For “CIU-123: HXEGTFTSDUSIYLDKQAAXEFVNWLLAGGPSSGAPPPS (SEQ ID NO: 2013); C(S-S)—CH2CH2CH2-B^1Desdi (H[Aib]EGTFTSDK([γGlu-Palmitoyl])SIYLDKQAA[Aib]EFVNWLLAGGPSSGAPPPS; also: disulfide-linked propyl to B1 of desdi insulin, site not given here)”, the EC50 with GLP-1 receptor amounted to 0.0032 nM; with GIP receptor, 0.0036 nM.
Regarding `C[C@@H](O)[C@H](NC(=O)CNC(=O)[C@H](CCCNC(=N)N)NC(=O)[C@H](CO)NC(=O)[C@H](Cc1c[nH]cn1)NC(=O)[C@@H](N)Cc1ccc(NC(=O)CNC(=O)CN)cc1)C(=O)N[C@@H](Cc1ccccc1)C(N)=O`, the t1/2 entry in the data set “physchem” (Table 2, result in words, PBS) is listed as “No cleavage”.
As for “CIU-26: pegylated native insulin (20 K PEG linked to the B29 side chain) [reference compound]”, the food intake entry is “does not” in the data set on diabetic mice [1] (FIG. 13); “did not” in the data set on diabetic mice [1] (FIG. 16C); “does not” in the data set on diabetic mice [1] (seven days, FIG. 17C). Besides, the body weight result in the data set with diabetic mice [1] (seven days) was “not”. Besides, in the data set on diabetic mice [2], the weight loss result was “failed to induce weight loss”.
Take “APHSRGTF-NH2 [Table 3 no. 5: A, P, H-SRGTF-NH2]”: the t1/2 entry in “physchem” (buffer) is on record as “No cleavage”.
The same measure, in the same setting: with `C[C@@H](O)[C@H](NC(=O)CNC(=O)[C@H](CCCNC(=N)N)NC(=O)[C@H](CO)NC(=O)[C@H](Cc1c[nH]cn1)NC(=O)[C@@H]1CCCN1C(=O)[C@@H](O)Cc1ccccc1)C(=O)N[C@@H](Cc1ccccc1)C(N)=O` the entry was “No cleavage”.
On to “SEQ ID NO: 128: glucagon analog substituting the native glutamine at position 3 with glutamic acid”, for which, in the data set with GLP-1 receptor (versus glucagon receptor), the “selectivity for the GLP-1 receptor” value is recorded as “tenfold”.
As for `C[C@@H](O)[C@H](NC(=O)CNC(=O)[C@H](CCCNC(=N)N)NC(=O)[C@H](CO)NC(=O)[C@H](Cc1c[nH]cn1)NC(=O)[C@@H]1CCCN1C(=O)[C@@H]1CCCN1)C(=O)N[C@@H](Cc1ccccc1)C(N)=O` [Table 3 no. 8: P, P, H-SRGTF-NH2], the t1/2 result in the data set “physchem” (buffer) is listed as “No cleavage”.
Consider “GPHSRGTF-NH2 [Table 3 no. 3: G, P, H-SRGTF-NH2]”, for which, in “physchem” (buffer), the t1/2 result is on record as “No cleavage”.
“CIU-055: HXEGTFTSDVSSYLEEQAAREFIAWLVRGGPSSGAPPPSK(20K PEG) (SEQ ID NO: 1974); C(S-S)—CH2CH2CH2-B^1 DesDi”: in the data set with insulin receptor (IR-B), the EC50 was 1140 nM.
As for “CIU-013: HXEGTFTSDVSSYLEEQAAKEFIAWLVKGGPSSGAPPPSGU (SEQ ID NO: 1954); C(S-S)—CH2CH2CH2-B^1 Insulin”, the lowering blood glucose entry with diabetic mice [1] (5, 15 or 20 nmoles/kg, FIG. 11B) is recorded as “all doses of the compound are effective in lowering blood glucose”. The food intake entry is recorded as “suppressing food intake” in the data set with diabetic mice [1] (FIG. 13) and “suppresses food intake relative to the administration of the pegylated insulin analog” with diabetic mice [2] (FIG. 14C). In addition, in the data set on diabetic mice [1], the “blood glucose levels and duration of action” value is “demonstrate activity in reducing blood glucose levels and demonstrate an extended duration of action relative to native insulin”. Further, the blood glucose result in the data set on diabetic mice [1] (daily or 2× a day, one fifth the dosage of the pegylated insulin, FIG. 14D) is on record as “would appear to not be as effective as insulin”. Also, in the data set on diabetic mice [1] (second administration at 6 hours, 10 nmole/kg(×2), FIG. 12B), the “24 hour blood glucose” value is “about 100 mg/dL”. For the same compound, the weight loss result in the data set on diabetic mice [2] is recorded as “produced significant weight loss”.
Regarding `C[C@@H](O)[C@H](NC(=O)CNC(=O)[C@H](CCCNC(=N)N)NC(=O)[C@H](CO)NC(=O)[C@H](Cc1c[nH]cn1)NC(=O)[C@@H]1CCCN1C(=O)[C@H]1CCCN1)C(=O)N[C@@H](Cc1ccccc1)C(N)=O` [Table 3 no. 13: d-P, P, H-SRGTF-NH2], the t1/2 result in “physchem” (buffer) is “No cleavage”.
Take “CPHSRGTF-NH2 [Table 3 no. 6: C, P, H-SRGTF-NH2]”: the t1/2 entry in the data set “physchem” (buffer) is “No cleavage”.
For the compound “CIU-037: HXEGTFTSDVSSYLEEQAAREFIAWLVRGGPSSGAPPPSK(20K PEG) (SEQ ID NO: 1966); C(S-S)—CH2CH2CH2-B^1 Insulin”, the blood glucose levels result with diabetic mice [1] (1, 2.5 or 5 nmol/kg, seven days, FIG. 17B) is reported as “improved blood glucose levels achieved relative to pegylated insulin”; with diabetic mice [1] (5, 10 or 20 nmol/kg, FIG. 16B), “blood glucose levels inversely proportional to the dose administered”. Further, the “fat mass and lean mass” value with diabetic mice [1] (FIG. 17E) is “comes from fat mass and not lean mass”. The food intake entry with diabetic mice [1] (seven days, FIG. 17C) is “suppress food intake”. The body weight result with diabetic mice [1] (seven days) is recorded as “induces loss in body weight”.
Turning to “CIU-004: XEGTFTSDVSSYLEEQAAKEFIAWLVKGGPSSGAPPPS (SEQ ID NO: 1945); C(S-S)—CH2CH2CH2-B^1 Insulin (conjugate chemistry not built)”, the EC50 is 7.96 nM with GLP-1 receptor and 0.59 nM with insulin receptor (IR-B).
With “EPHSRGTF-NH2 [Table 3 no. 10: E, P, H-SRGTF-NH2]”, the t1/2 result in the data set “physchem” (buffer) is on record as “No cleavage”.
For “KPHSRGTF-NH2 [Table 3 no. 9: K, P, H-SRGTF-NH2]”, the t1/2 entry in “physchem” (Table 3, words or unit not given, PBS) is recorded as “No cleavage”.
As to `C[C@@H](O)[C@H](NC(=O)CNC(=O)[C@H](CCCNC(=N)N)NC(=O)[C@H](CO)NC(=O)[C@H](Cc1c[nH]cn1)NC(=O)[C@@H]1CCCN1C(=O)CO)C(=O)N[C@@H](Cc1ccccc1)C(N)=O`, in “physchem” (buffer), the t1/2 result is “No cleavage”.
As to “CIU-021: HXEGTFTSDUSSYLEEQAAKEFIAWLVKGGPSSGAPPPSG (SEQ ID NO: 1958); Pen(S-S)—CH2CH2CH2-B^1 Insulin”, the “blood glucose levels and duration of action” value with diabetic mice [1] is “demonstrate activity in reducing blood glucose levels and demonstrate an extended duration of action relative to native insulin”.
With `CNC(C)(C)C(=O)N1CCC[C@H]1C(=O)N[C@@H](Cc1c[nH]cn1)C(=O)N[C@@H](CO)C(=O)N[C@@H](CCCNC(=N)N)C(=O)NCC(=O)N[C@H](C(=O)N[C@@H](Cc1ccccc1)C(N)=O)[C@@H](C)O` [Table 3 no. 19: N—Me-Aib, P, H-SRGTF-NH2], the half-life in the data set “physchem” (buffer) was more than 20.8 days.
Turning to `C[C@@H](O)[C@H](NC(=O)CNC(=O)[C@H](CCCNC(=N)N)NC(=O)[C@H](CO)NC(=O)[C@H](Cc1c[nH]cn1)NC(=O)[C@H]1CCCN1C(=O)[C@@H]1CCCN1)C(=O)N[C@@H](Cc1ccccc1)C(N)=O` [Table 3 no. 12: P, d-P, H-SRGTF-NH2], the t1/2 entry in “physchem” (buffer) was “No cleavage”.
